Assay results as given in patent publication US9765019B2, “Small-molecule-targeted protein degradation” (Brandeis University, priority 2011, dated 2017).
Like-named read-outs stand apart in the source and are kept apart here.

How the values were obtained:
[1] = target: T1, Escherichia coli dihydrofolate reductase (Escherichia coli, UniProt P0ABQ4); experiment: Degradation of pre-inhibited eDHFR in cell lysates (Western blot); type: biochemical
T1 construct: (His)6 (N); made in house; host or cells: Escherichia coli (pET28a vector)

eDHFR-HA-GFP = eDHFR-HA-GFP (Escherichia coli, UniProt P0ABQ4)
Method: FIG. 6 depicts degradation of eDHFR-HA in cell lysates and degradation of eDHFR fusion proteins in HeLa cells. (A) Degradation of eDHFR in HeLa cells lysates; (B) quantification of panel (A); (C) Global protein stability (GPS) assay. Cells co-express red fluorescent protein (RFP) and DHFR-HA-GFP from a bicistronic construct. Red and green fluorescence was measured by flow cytometry.
Protein degradation in whole cells was also assessed. eDHFR-HA-GFP was co-expressed with Discosoma sp. red fluorescent protein (RFP) in a bicistronic construct under control of a CMV promoter, with DHFR-HA-GFP translation occurring at the internal ribosome binding site. Thus a single mRNA is responsible for the production of both RFP and DHFR-HA-GFP, so that similar ratios of both proteins should be produced in all transfected cells. Changes in the relative intensities of red and green fluorescence are measured by flow cytometry, providing a facile and quantitative measure of the degradation of DHFR-HA-GFP in living cells and real time.
Cells were grown to 90% confluence in Dulbecco's Modified Minimal Essential Medium supplemented with 10% fetal bovine serum, 1×L-glutamine with no antibiotic in a 6 well plate. At this point the cells were serum starved, and then transfected using […] plasmid (expression driven by the cytomegalovirus promoter; gene coding for enhanced green fluorescent protein fused to the C-terminus of E. coli dihydrofolate reductase): 2 μL Transfectin™ (Biorad) per well. 48 hours after transfection, media was once again aspirated, and fresh serum free media was added. Cycloheximide (final concentration 100 μg/mL) was then added to the cells and after 5 minutes, 30 μM inhibitor was added. At each time point (45 minutes), media was aspirated, cells were trypsinized, centrifuged and washed three times with phosphate buffered saline. Cell pellets were flash frozen in dry ice, and then stored indefinitely at −80° C. The cells were thawed on ice, and then resuspended in lysis buffer (150 mM sucrose, 200 mM sodium phosphate, 43 mM MgCl2, pH 7.8, 0.1% triton X-100). Cells were lysed by two freeze/thaw cycles (−80° C. for 5 minutes, then 4° C. for 10 minutes). Lysate concentrations were normalized by dilution with lysis buffer such that they gave the same A595 when diluted into Bradford assay dye (Biorad).

eDHFR-HA = target: T2, eDHFR-HA (Escherichia coli, UniProt P0ABQ4); experiment: Degradation by purified 20S proteasome / immunoproteasome; type: biochemical
T2 construct: (His)6 (N); made in house; host or cells: Escherichia coli (pET28a vector)
Method: The protein was pre-inhibited with 1 mM inhibitor by incubation at 30° C. for 20 minutes. This mixture was added to the assay mixture (in 50 mM Hepes, pH 8.0, 250 mM NaCl, 1 mM DTT) such that the final concentration of protein was 90 nM. The concentration of proteasome was 6 nM. The temperature of assay was 37° C. Total assay volume was 55 μL. 15 μL aliquots were extracted at various time points and immediately placed into 6 μL of 5× loading buffer and boiled for 5 minutes. These were stored at −80° C. after flash freezing on dry ice and thawed by boiling for 2 minutes. The data was analyzed by Western blot as described in Example 2.

HeLa cells = experiment: Cytotoxicity and apoptosis (trypan blue staining, PARP cleavage); type: cell-based; conditions: concentrations up to 135 μM
eDHFR = eDHFR (Escherichia coli, UniProt P0ABQ4); type: binding; conditions: data not shown
[2] = system: eDHFR-KRas D12 fusion protein; type: cell-based; conditions: NIH3T3 cells, 16 μM
Method: FIG. 3 depicts the degradation of eDHFR-KRas D12 fusion protein. MSCV retrovirus was used to insert eDHFR-KRas D12 fusion gene into NIH3T3 cells. These cells were plated in a 48-well plate and treated with 16 μM of either trimethoprim or trimethoprim-Boc3Arg, and then harvested at the times indicated. eDHFR-Ras contained a FLAG tag at the amino terminus and was measured through western blot with anti-FLAG antibody. Tubulin was used as a loading control.

SMILES: COc1cc(Cc2cnc(N)nc2N)cc(OC)c1OCC(=O)NCCCCCCNC(=O)C(CCCNC(=NC(=O)OC(C)(C)C)NC(=O)OC(C)(C)C)NC(=O)OC(C)(C)C (stereo not drawn) [TMP-Boc3Arg, N-(6-(2-(4-((2,4-diaminopyrimidin-5-yl)methyl)-2,6-dimethoxyphenoxy)acetamido)hexyl)-5-(2,3-di-t-butoxycarbonylguanidino)-2-(t-butoxycarbonylamino)pentanamide]
- Degradation of target protein (eDHFR fused to GFP) ([1]; FIG. 6, noncovalent ligand): induced the degradation
- Degradation of eDHFR in cell lysate assays ([1]; cell lysate): promotes the degradation
- decrease of eDHFR-HA-GFP (eDHFR-HA-GFP; 80 μM, 5 hours, GPS assay, anti-HA and anti-GFP blotting): 40%
- Change in GFP:RFP ratio as function of time (eDHFR-HA-GFP; GPS assay, transfected HeLa cells, flow cytometry): time-dependent decrease
- Cell permeability (eDHFR-HA-GFP; inferred from whole-cell degradation): cell permeable
- Degradation of eDHFR-HA-GFP in whole cells (eDHFR-HA-GFP; whole cell assays): promotes the degradation
- Degradation using purified immune proteasome (eDHFR-HA; 20S immunoproteasome): promotes the degradation
- Degradation using purified 20S proteasome (eDHFR-HA; purified 20S proteasome, no ATP added): promotes the degradation
- Cytotoxicity / induction of apoptosis (HeLa cells): did not display cytotoxicity or induce apoptosis
- increase of eDHFR melting point / stability (relative to TMP) (eDHFR): smaller increase
- Degradation of K-Ras-eDHFR fusion protein [2]: can induce the degradation
- Degradation of K-Ras-eDHFR fusion protein ([2]; listed as trimethoprim-tag): is degraded
